Reference: patent US20210299094A1, “METHODS OF UPREGULATING TIPARP AS ANTICANCER STRATEGIES” (CORNELL UNIVERSITY, priority 2018, published 2021)
Like-named read-outs stand apart in the source and are kept apart here. Each block holds one compound with its values, some of them ahead of it. Where a SMILES comes first, the peptide text is derived from it. The star is where a group is joined. Cbz = O=C(OCc1ccccc1)*

Legend:
TiPARP mRNA [1] = tested on: TiPARP mRNA
Protocol: (§1) Quantitative Real Time PCR (qRT-PCR)
(§2) Total RNA. was isolated using RNeasy Mini kit (Qiagen) according to the manufacturer's instructions. 0.2 μg sample of total RNA was employed for cDNA synthesis using the Superscript III First-Strand Synthesis kit (Invitrogen) following the manufacturer's instructions. For quantitative real-time PCR analysis, iTaq Universal SYBR Green Supermix (Bio-Rad) was used following the manufacturer's instructions. The reaction was performed with QuantStudio™ 7 Flex Real-Time PCR System (APPLIED BIOSYSTEMS™). In each run, melt curve analysis was performed to ensure the amplification of a single product. The relative expression of each gene, normalized to actin, was calculated using the 2^−ΔΔCt method. The following primers were used for qRT-PCR: VEGF: 5′-[…]-3′ (SEQ ID NO: 24) and 5′-[…]-3′ (SEQ ID NO: 25); GLUT1: 5′-[…] CTAAA-3′ (SEQ ID NO: 26) and 5′˜[…]-3′ (SEQ ID NO: 27); PDK1: 5′-[…]-3′ (SEQ ID NO: 28) and 5′-[…]-3′ (SEQ ID NO: 29); WSBJ: 5′-[…]-3′ (SEQ ID NO: 30) and 5′-[…]-3′ (SEQ ID NO: 31); LDHA: 5′-[…]-3′ (SEQ ID NO: 32) and 5′-[…] CAG-3′ (SEQ ID NO: 33); CXCR4: 5′-[…]-3′ (SEQ ID NO: 34) and 5′-[…]-3′ (SEQ ID NO: 35); TIPARP: 5′-[…]-3′ (SEQ ID NO: 36) and 5′-[…]-3′ (SEQ ID NO: 37), ACTIN: 5′-[…]-3′ (SEQ ID NO: 38) and 5′-[…]-3′ (SEQ ID NO: 39).

SKBR3 (ER neg.) = test: IC50 in SKBR3 (ER neg.) cell line; type: cell-based; settings: Homo sapiens, SK-BR-3
MCF-7 (ER pos.) = test: IC50 in MCF-7 (ER pos.) cell line; type: cell-based; settings: Homo sapiens, MCF7
TiPARP mRNA [2] = tested on: TiPARP mRNA; remark: listed apart in the source
Protocol: as §1, §2

MCF-7 = test: Growth inhibition IC50 in MCF-7 cells, control vs TiPARP knockdown; type: cell-based; settings: Homo sapiens
Protocol: (§3) For transient overexpression of proteins of interest, cells were transfected with expression vectors using FuGene 6 (Promega, E2691) according to the manufacturer's protocol. To stably knock down TiPARP, lentivirus was produced by transfecting HEK 293T cells with pCMV-ΔR8.2 (packaging vector), pM2D.G (envelope vector) and shRNAs (Sigma). Virus-containing medium was harvested 24 hr after transfection. Target ceils were seeded in a 6-well plate 20 hr prior to transduction (3×10^5 cells per well). At the confluence of 50%, target cells were transduced with virus particles in medium supplemented with 5 μg/ml polybrene (Sigma), and incubated for 6 hr. Remove supernatant and add fresh medium to the cells. 72 hr after infection, 2 μg/mL puromycin was added to the cell culture media for 10 days to select stably transduced target cells.
(§4) IC50 values for Biochanin A was measured in HCT116, SKBR3 and MCF-7 cell lines where TiPARP was knocked down.

HCT116 [3] = test: Growth inhibition IC50 in HCT116 cells, control vs TiPARP knockdown; type: cell-based; settings: Homo sapiens
Protocol: as §3, §4

SKBR3 = test: Growth inhibition IC50 in SKBR3 cells, control vs TiPARP knockdown; type: cell-based; settings: Homo sapiens
Protocol: as §3, §4

TiPARP mRNA [4] = tested on: TiPARP mRNA; remark: listed apart in the source
Protocol: as §1, §2

HCT116 [5] = test: IC50 in HCT116 cell line; type: cell-based; settings: Homo sapiens, HCT-116
TiPARP mRNA [6] = test: RT-PCR analysis of TiPARP mRNA level in HEK 293T treated with hypoxia-mimetic agents; type: cell-based, human; settings: FIG. 1C
Source text: FIGS. 1A-1F. TiPARP is a direct target gene of HIFs. (A) A schematic representation of TiPARP promoter. Core sequence of hypoxia-response element (HRE) is highlighted in red. (B) Expression of TiPARP mRNA in HCT116 and MCF-7 cells analyzed by qRT-PCR under normoxia/hypoxia (mean and s.d. of three independent experiments). (C) RT-PCR analysis of TiPARP mRNA level in HEK 293T treated with hypoxia-mimetic agent DMOG and DFO, or transfected with HA tagged HIF-1α. Expression of endogenous or HA-HIF-1α was detected by HIF-1α antibody on western blot (bottom), (D) Schematic representation of the luciferase reporter construct with wild type (WT) or mutated (Mut) HRE. (E) HIF-1α transactivation measured by luciferase reporter with WT or mutant HRE from TiPARP promoter. Transfection efficiencies were normalized to co-transfected Renilla-luciferase. Mean and standard deviation (s.d.) correspond to four technical replicates, representative of three independent experiments. NS, not significant. (F) ChIP assay assessing the chromatin binding of HIF-1α to HRE in TiPARP promoter, RNA polymerase II (Pol II) was used as a positive control.
TiPARP was previously characterized as a TCDD-responsive gene regulated by AHR (Ma, Q. Arch Biochem Biophys 404, 309-316 (2002); Ma, Q. et al, Biochem Biophys Res Commun 289, 499-506, (2001)). […]

MDA-MB-468 (ER negative) = test: IC50 in MDA-MB-468 (ER negative) cell line; type: cell-based; settings: Homo sapiens
MDA-MB-231 (ER negative) = test: IC50 in MDA-MB-231 (ER negative) cell line; type: cell-based; settings: Homo sapiens
[7] = tested on: HME1 (normal mammary epithelial cell); test: IC50 in HME1 (normal mammary epithelial cell); type: cell-based
BT549 (ER negative) = test: IC50 in BT549 (ER negative) cell line; type: cell-based; settings: Homo sapiens, BT-549
TiPARP mRNA [8] = settings: human
Protocol: as §1, §2

cMyc protein levels = cMyc protein levels in TiPARP-overexpressing HCT 116C cells with protease inhibitor treatment; type: cell-based, human; settings: 20 μM, over 2 hours, FIG. 10B
Source text: FIGS. 10A-10E. (A) Overexpression of active TiPARP decreases cMyc protein levels. […] (B) TiPARP regulates cMyc protein levels by regulating the protein degradation pathway. […] (D) Knockdown of TiPARP in HCT116 cells caused ERα protein levels to increase. (E) Knockdown of TiPARP in MCF-7 cells caused ERα protein levels to increase.
The inventors also observed that overexpression of active TiPARP decreases cMyc protein levels.
The inventors also discovered the TiPARP regulates cMyc protein levels by regulating the protein degradation pathway.

SMILES: COc1ccc(-c2coc3cc(O)cc(O)c3c2=O)cc1 [Biochanin A]
TiPARP mRNA fold induction (TiPARP mRNA [1]; human): 5.6 fold | IC50 (SKBR3 (ER neg.)): 20 µM | IC50 (MCF-7 (ER pos.)): 19.7 µM | TiPARP mRNA fold induction (TiPARP mRNA [2]; human): 8.8 fold | IC50 (MCF-7; MCF7, MCF-7, Ctrl): 93.4 µM | IC50 (MCF-7; MCF7, MCF-7, TiPARP KD (40%)): 174 µM | IC50 (HCT116 [3]; HCT-116, HCT116, Ctrl): 30 µM | IC50 (HCT116 [3]; HCT-116, HCT116, TiPARP KD (40%)): 54.8 µM | IC50 (SKBR3; SK-BR-3, SKBR3, Ctrl): 52.3 µM | IC50 (SKBR3; SK-BR-3, SKBR3, TiPARP KD (40%)): 83.3 µM | TiPARP mRNA fold induction (TiPARP mRNA [4]; human): 2.5 fold | IC50 (HCT116 [5]): 20 µM

SMILES: CC(=O)N(O)CCCCCNC(=O)CCC(=O)N(O)CCCCCNC(=O)CCC(=O)N(O)CCCCCN [DFO, desferrioxamine]
TiPARP mRNA level (TiPARP mRNA [6]): increased

SMILES: COC(=O)CNC(=O)C(=O)OC [DMOG, dimethyloxalylglycine]
TiPARP mRNA level (TiPARP mRNA [6]): increased

SMILES: CC(C)C[C@@H](C=O)NC(=O)[C@H](CC(C)C)NC(=O)[C@H](CC(C)C)NC(=O)OCc1ccccc1 [MG132] (Cbz-Leu-Leu-Leu-aldehyde)
effect on TiPARP-overexpression-induced decrease of cMyc protein levels (cMyc protein levels): effectively blocked the effect of TiPARP overexpression

Second part, led by results:

TiPARP mRNA fold induction (TiPARP mRNA [1]; human): 3.3 fold | IC50 (SKBR3 (ER neg.)): 45 µM | IC50 (MDA-MB-468 (ER negative)): 13.5 µM | IC50 (MCF-7 (ER pos.)): 31 µM | TiPARP mRNA fold induction (TiPARP mRNA [2]; human): 4.2 fold | IC50 (MDA-MB-231 (ER negative)): 47.9 µM | IC50 (BT549 (ER negative)): 32.1 µM | TiPARP mRNA fold induction (TiPARP mRNA [4]; human): 8.0 fold | IC50 (HCT116 [5]): 39 µM | TiPARP mRNA fold induction (TiPARP mRNA [8]): 3.2 fold
SMILES: c1ccc2c(Cc3c[nH]c4ccccc34)c[nH]c2c1 [Diindolylmethane, diindolylmethane]
IC50 [7]: 51.2 µM

TiPARP mRNA fold induction (TiPARP mRNA [1]): 1.7 fold | TiPARP mRNA fold induction (TiPARP mRNA [2]): 2.5 fold | TiPARP mRNA fold induction (TiPARP mRNA [4]): 2.3 fold
SMILES: COc1ccc(-c2coc3cc(O)ccc3c2=O)cc1 [Formonometin, formonometin]

TiPARP mRNA fold induction (TiPARP mRNA [1]; human): 0.81 fold | TiPARP mRNA fold induction (TiPARP mRNA [2]; human): 2.3 fold | TiPARP mRNA fold induction (TiPARP mRNA [4]; human): 1.7 fold
SMILES: COc1ccc2[nH]c([S+]([O-])Cc3ncc(C)c(OC)c3C)nc2c1 (stereo not drawn) [Omerprazole, omeprazole]

IC50 (SKBR3 (ER neg.)): 35.3 µM | IC50 (MDA-MB-468 (ER negative)): 97.3 µM | IC50 (MCF-7 (ER pos.)): 27.7 µM | IC50 (MDA-MB-231 (ER negative)): 90.4 µM | IC50 (BT549 (ER negative)): 23.1 µM | IC50 (HCT116 [5]): 46 µM
SMILES: Oc1ccc(C=Cc2cc(O)cc(O)c2)cc1 [Resveratrol, resveratrol]
IC50 [7]: 189 µM

TiPARP mRNA fold induction (TiPARP mRNA [1]): 1.5 fold | TiPARP mRNA fold induction (TiPARP mRNA [2]): 1.4 fold | TiPARP mRNA fold induction (TiPARP mRNA [4]): 1.4 fold
SMILES: OCc1c[nH]c2ccccc12 [indole-3-carbinol]
